Experimental data from PubChem BioAssay AID330 (DTP/NCI, 2004).
Values joined by “and” are separate entries in the source; they are usually repeats but may differ in a detail not shown here. Identical values can stand only once. Toxic doses and inconclusive results are not listed. Rule for the calls: active = survival T/C of 150% or more; inactive = T/C below 125% in these data.

Tested on: P388 leukemia ip, CD2F1 mice, survival T/C
Test: NCI In Vivo Anticancer Drug Screen. Data for tumor model P388 Leukemia (intraperitoneal) in CD2F1 (CDF1) mice
Details: endpoint: median survival time, higher = longer survival
Outline: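 Mice carrying the transplanted tumor received test compound or vehicle. Survival was recorded in each group, and the value is the treated-group measurement divided by that of the vehicle-treated control group.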

[1] = dose: 200.0 mg/kg/injection, schedule: Q04DX003 (ip), vehicle: saline with Tween-80
[2] = dose: 50.0 mg/kg/injection, schedule: Q01DX005 (ip), vehicle: saline with Tween-80
[3] = dose: 100.0 mg/kg/injection, schedule: Q01DX005 (ip), vehicle: saline with Tween-80
[4] = dose: 200.0 mg/kg/injection, schedule: Q01DX005 (ip), vehicle: saline with Tween-80
[5] = dose: 50.0 mg/kg/injection, schedule: Q01DX009 (ip), vehicle: saline
[6] = dose: 100.0 mg/kg/injection, schedule: Q01DX009 (ip), vehicle: saline
[7] = dose: 200.0 mg/kg/injection, schedule: Q01DX009 (ip), vehicle: saline
[8] = dose: 60.0 mg/kg/injection, schedule: Q01DX005 (ip), vehicle: saline with Tween-80
[9] = dose: 120.0 mg/kg/injection, schedule: Q01DX005 (ip), vehicle: saline with Tween-80
[10] = dose: 240.0 mg/kg/injection, schedule: Q01DX005 (ip), vehicle: saline with Tween-80
[11] = dose: 50.0 mg/kg/injection, schedule: Q01DX009 (ip), vehicle: Klucel (hydroxypropylcellulose) (HPC)
[12] = dose: 100.0 mg/kg/injection, schedule: Q01DX009 (ip), vehicle: Klucel (hydroxypropylcellulose) (HPC)
[13] = dose: 200.0 mg/kg/injection, schedule: Q01DX009 (ip), vehicle: Klucel (hydroxypropylcellulose) (HPC)
[14] = dose: 100.0 mg/kg/injection, schedule: Q04DX003 (ip), vehicle: saline with Tween-80
[15] = dose: 100.0 mg/kg/injection, schedule: Q01DX001 (ip), vehicle: Klucel (hydroxypropylcellulose) (HPC)
[16] = dose: 200.0 mg/kg/injection, schedule: Q01DX001 (ip), vehicle: Klucel (hydroxypropylcellulose) (HPC)
[17] = dose: 25.0 mg/kg/injection, schedule: Q01DX009 (ip), vehicle: saline with Tween-80
[18] = dose: 50.0 mg/kg/injection, schedule: Q01DX009 (ip), vehicle: saline with Tween-80
[19] = dose: 6.25 mg/kg/injection, schedule: Q01DX009 (ip), vehicle: saline with Tween-80
[20] = dose: 12.5 mg/kg/injection, schedule: Q01DX009 (ip), vehicle: saline with Tween-80

Measured: T/C

COc1ccc(C2CCc3cc4c(cc3C2=O)OCO4)cc1OC (centres undefined)
inactive: [1] 90 % of control

CCOC(=O)c1cnc(NCCCCNc2ncc(C(=O)OCC)c(=O)[nH]2)[nH]c1=O
inactive: dose: 50.0 mg/kg/injection, schedule: Q01DX005 (ip), vehicle: Klucel (hydroxypropylcellulose) (HPC) 98 % of control | dose: 100.0 mg/kg/injection, schedule: Q01DX005 (ip), vehicle: Klucel (hydroxypropylcellulose) (HPC) 90 % of control | dose: 200.0 mg/kg/injection, schedule: Q01DX005 (ip), vehicle: Klucel (hydroxypropylcellulose) (HPC) 90 % of control

C=C(C)C(C(=O)OC(c1ccccc1)c1ccccc1)N1C(=O)C(NC(=O)COc2ccccc2)C1SSc1nc2ccccc2s1 (centres undefined)
inactive: [2] 94 % of control | [3] 89 % of control | [4] 93 % of control

COc1ccc2c(c1)CSCC2O (centres undefined)
inactive: dose: 50.0 mg/kg/injection, schedule: Q01DX009 (ip), vehicle: other 95 % of control | dose: 100.0 mg/kg/injection, schedule: Q01DX009 (ip), vehicle: other 100 % of control | dose: 200.0 mg/kg/injection, schedule: Q01DX009 (ip), vehicle: other 96 % of control

O=C(Nc1ccc(Cl)cc1C(F)(F)F)Oc1ccc(-c2ccccc2)cc1Br
inactive: [5] 95 % of control | [6] 88 % of control | [7] 97 % of control

O=c1[nH]c2cc3c(cc2n2cccc12)oc1ccccc13
inactive: dose: 25.0 mg/kg/injection, schedule: Q01DX005 (ip), vehicle: saline with Tween-80 98 % of control | [2] 100 % of control | [3] 100 % of control | [4] 100 % of control

c1ccc(N=Nc2ccc3ns[s+]c3c2)cc1
inactive: [8] 92 % of control | [9] 95 % of control | [10] 103 % of control

COc1cc2c(c(OC)c1OC)-c1cc3c(cc1C(OC1c4cc5c(cc4-c4c(cc(OC)c(OC)c4OC)CC4C(=O)OCC41)OCO5)C1COC(=O)C1C2)OCO3 (centres undefined)
inactive: dose: 2.5 mg/kg/injection, schedule: Q01DX005 (ip), vehicle: Klucel (hydroxypropylcellulose) (HPC) 109 % of control | dose: 5.0 mg/kg/injection, schedule: Q01DX005 (ip), vehicle: Klucel (hydroxypropylcellulose) (HPC) 98 % of control | dose: 10.0 mg/kg/injection, schedule: Q01DX005 (ip), vehicle: Klucel (hydroxypropylcellulose) (HPC) 92 % of control | dose: 20.0 mg/kg/injection, schedule: Q01DX005 (ip), vehicle: Klucel (hydroxypropylcellulose) (HPC) 109 % of control

CSc1nc(-c2ccccc2)cc(=O)[nH]1
inactive: dose: 25.0 mg/kg/injection, schedule: Q01DX009 (ip), vehicle: Klucel (hydroxypropylcellulose) (HPC) 106 % of control | [11] 118 % of control | [5] 102 % of control | [12] 112 % of control | [6] 108 % of control | [13] 94 % of control | [7] 102 % of control

CCc1nc(-c2ccccc2)c(-c2ccccc2)[nH]1
inactive: [14] 90 % of control | [1] 90 % of control | dose: 400.0 mg/kg/injection, schedule: Q04DX003 (ip), vehicle: saline with Tween-80 95 % of control

O=C1Cc2ccccc2N1C(=O)c1cccc(Br)c1
inactive: [15] 98 % of control | [16] 95 % of control

CC(=O)Nc1nc([N+](=O)[O-])c(C(C)C)s1
inactive: dose: 100.0 mg/kg/injection, schedule: Q01DX001 (ip), vehicle: saline with Tween-80 98 % of control | dose: 200.0 mg/kg/injection, schedule: Q01DX001 (ip), vehicle: saline with Tween-80 97 % of control | dose: 400.0 mg/kg/injection, schedule: Q01DX001 (ip), vehicle: saline with Tween-80 93 % of control

CC([NH-])C[NH-].O=C(O)CC(=O)O.[Pt+2]
active: dose: 25.0 mg/kg/injection, schedule: Q04DX002 (ip), vehicle: saline with Tween-80 153 % of control and 158 % of control | dose: 50.0 mg/kg/injection, schedule: Q04DX002 (ip), vehicle: saline with Tween-80 179 % of control and 183 % of control

CCOc1ccc(N=Nc2c(O)n(-c3ccccc3Cl)c(=S)n(-c3ccc(OC)cc3)c2=O)cc1
inactive: dose: 50.0 mg/kg/injection, schedule: Q01DX001 (ip), vehicle: Klucel (hydroxypropylcellulose) (HPC) 97 % of control | [15] 102 % of control | [16] 97 % of control

Cc1ccc(NC(=O)CCCC(=O)C(C#N)c2nc3ccccc3s2)cc1C (centres undefined)
inactive: [8] 100 % of control | [9] 98 % of control | [10] 98 % of control

CN1c2ccccc2C(C)(C)C2Nc3c(C#N)cnc(N)c3C21 (centres undefined)
inactive: dose: 50.0 mg/kg/injection, schedule: Q04DX003 (ip), vehicle: saline with Tween-80 96 % of control | [14] 105 % of control | [1] 109 % of control

CCC(=O)[C@]1(O)Cc2c(O)c3c(c(O)c2[C@@H](OC2CC(N)C(O)C(C)O2)C1)C(=O)c1c(OC)cccc1C3=O (some centres undefined)
inactive: dose: 3.13 mg/kg/injection, schedule: Q04DX003 (ip), vehicle: water 102 % of control | dose: 6.25 mg/kg/injection, schedule: Q04DX003 (ip), vehicle: water 112 % of control | dose: 12.5 mg/kg/injection, schedule: Q04DX003 (ip), vehicle: water 119 % of control | dose: 25.0 mg/kg/injection, schedule: Q04DX003 (ip), vehicle: water 119 % of control | dose: 50.0 mg/kg/injection, schedule: Q04DX003 (ip), vehicle: water 110 % of control

CCCCCCC(/C=C/c1ccc(Cl)c(Cl)c1)=N\Nc1ccc(Cl)c(Cl)c1
inactive: [17] 90 % of control | [18] 88 % of control and 93 % of control | dose: 100.0 mg/kg/injection, schedule: Q01DX009 (ip), vehicle: saline with Tween-80 94 % of control | dose: 200.0 mg/kg/injection, schedule: Q01DX009 (ip), vehicle: saline with Tween-80 87 % of control

C(=C\CN1CCOCC1)/Cc1cccnc1
inactive: dose: 3.12 mg/kg/injection, schedule: Q01DX009 (ip), vehicle: saline with Tween-80 99 % of control and 100 % of control | [19] 100 % of control | [20] 100 % of control and 104 % of control | [17] 100 % of control (2×) and 102 % of control | [18] 103 % of control and 109 % of control

Clc1cc2c(c(CSc3nc4ccccc4n4cccc34)c1)OCOC2
inactive: [11] 96 % of control | [12] 96 % of control | [13] 98 % of control

CCCCCCC[N+]1(CC)CCCCC1
inactive: dose: 6.25 mg/kg/injection, schedule: Q01DX009 (ip), vehicle: saline 104 % of control | dose: 12.5 mg/kg/injection, schedule: Q01DX009 (ip), vehicle: saline 106 % of control | dose: 25.0 mg/kg/injection, schedule: Q01DX009 (ip), vehicle: saline 115 % of control

O=C1OCc2nc3ccccc3cc21
inactive: dose: 50.0 mg/kg/injection, schedule: Q04DX003 (ip), vehicle: Klucel (hydroxypropylcellulose) (HPC) 100 % of control | dose: 100.0 mg/kg/injection, schedule: Q04DX003 (ip), vehicle: Klucel (hydroxypropylcellulose) (HPC) 98 % of control | dose: 200.0 mg/kg/injection, schedule: Q04DX003 (ip), vehicle: Klucel (hydroxypropylcellulose) (HPC) 106 % of control

CC(=O)NC1C(OC(C)=O)OC(C[Se][As](C)C)C(OC(C)=O)C1OC(C)=O (centres undefined)
inactive: [11] 105 % of control | [12] 110 % of control

O=C1NC(=O)C2(N1)C1CCCC2C(c2ccccc2)NC1c1ccccc1 (centres undefined)
inactive: [8] 96 % of control | [9] 91 % of control | [10] 90 % of control

CCc1ccc2c(c1OCOC)CCC2
inactive: dose: 100.0 mg/kg/injection, schedule: Q04DX002 (ip), vehicle: saline with Tween-80 100 % of control | dose: 200.0 mg/kg/injection, schedule: Q04DX002 (ip), vehicle: saline with Tween-80 100 % of control | dose: 400.0 mg/kg/injection, schedule: Q04DX002 (ip), vehicle: saline with Tween-80 95 % of control

CC(C)S.[Cu+2]
inactive: [19] 114 % of control | [20] 97 % of control | [17] 109 % of control
